# Source: ChEMBL document CHEMBL1201862, “PubChem BioAssay data set” (2004)
#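 1) Cells in 96-well plates. 2) Compound, 48 h, 5 concentrations. 3) Linear interpolation between surrounding doses. 4) Unreached endpoint = highest concentration. At the GI50, growth is halved.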 Calls of active or inactive are those of the source. Rule as the data show it: active = GI50 up to about 1.1 µM and inactive = higher.
# Key:
# Assay in all cases: growth of human tumour cells (NCI), 48 h
# Malme-3M = system: Malme-3M
# OVCAR-8 = system: OVCAR-8
# IGROV-1 = system: IGROV-1
# SNB-75 = system: SNB-75
# MCF7 = system: MCF7
# COLO 205 = system: COLO 205
# HT-29 = system: HT-29
# ACHN = system: ACHN
# HOP-62 = system: HOP-62
# A549 = system: A549
# M14 = system: M14
# NCI-H522 = system: NCI-H522
# MDA-MB-435 = system: MDA-MB-435
# EKVX = system: EKVX
# OVCAR-4 = system: OVCAR-4
# UACC-62 = system: UACC-62
# T47D = system: T47D
# SF-295 = system: SF-295
# SF-539 = system: SF-539
# SR = system: SR
Structure (SMILES),GI50 (Malme-3M),GI50 (OVCAR-8),GI50 (IGROV-1),GI50 (SNB-75),GI50 (MCF7),GI50 (COLO 205),GI50 (HT-29),GI50 (ACHN),GI50 (HOP-62),GI50 (A549),GI50 (M14),GI50 (NCI-H522),GI50 (MDA-MB-435),GI50 (EKVX),GI50 (OVCAR-4),GI50 (UACC-62),GI50 (T47D),GI50 (SF-295),GI50 (SF-539),GI50 (SR)
O=C(O)CC(C(=O)O)c1ccccc1[N+](=O)[O-] (stereo not drawn),> 100 µM (inactive),> 100 µM (inactive),> 100 µM (inactive),> 100 µM (inactive),> 100 µM (inactive),> 100 µM (inactive),> 100 µM (inactive),> 100 µM (inactive),> 100 µM (inactive),> 100 µM (inactive),> 100 µM (inactive),> 100 µM (inactive),> 100 µM (inactive),> 100 µM (inactive),> 100 µM (inactive),> 100 µM (inactive),> 100 µM (inactive),> 100 µM (inactive),–,–
COc1ccc(C(C)NNC(=O)c2ccncc2)cc1OC (stereo not drawn),> 100 µM (inactive),> 100 µM (inactive),> 100 µM (inactive),> 100 µM (inactive),> 100 µM (inactive),> 100 µM (inactive),> 100 µM (inactive),> 100 µM (inactive),> 100 µM (inactive),> 100 µM (inactive),> 100 µM (inactive),–,> 100 µM (inactive),> 100 µM (inactive),> 100 µM (inactive),> 100 µM (inactive),> 100 µM (inactive),> 100 µM (inactive),> 100 µM (inactive),> 100 µM (inactive)
N#Cc1cccc(Nc2ccccc2SSc2ccccc2Nc2cccc(C#N)c2)c1,11 µM (inactive),8.11 µM (inactive),8.65 µM (inactive),8.59 µM (inactive),7.52 µM (inactive),> 10 µM (inactive),11.4 µM (inactive),8.73 µM (inactive),11.9 µM (inactive),11.3 µM (inactive),7.55 µM (inactive),8.11 µM (inactive),8.69 µM (inactive),13.9 µM (inactive),10.7 µM (inactive),7.1 µM (inactive),12.3 µM (inactive),13.2 µM (inactive),8.79 µM (inactive),–
CCCN1CC=C(c2cc(C(=O)OCC)[nH]c2-c2cc(C)no2)C1=O,> 100 µM (inactive),> 100 µM (inactive),> 100 µM (inactive),30.8 µM (inactive),> 100 µM (inactive),> 100 µM (inactive),> 100 µM (inactive),–,> 100 µM (inactive),> 100 µM (inactive),> 100 µM (inactive),–,> 100 µM (inactive),> 100 µM (inactive),> 100 µM (inactive),> 100 µM (inactive),> 100 µM (inactive),> 100 µM (inactive),> 100 µM (inactive),54.7 µM (inactive)
CCn1c2ccccc2c2cc(Nc3cc(C)[nH]c(=O)n3)ccc21,–,> 100 µM (inactive),–,–,> 100 µM (inactive),> 100 µM (inactive),> 100 µM (inactive),> 100 µM (inactive),> 100 µM (inactive),> 100 µM (inactive),> 100 µM (inactive),0.916 µM (active),0.33 µM (active),> 100 µM (inactive),> 100 µM (inactive),0.349 µM (active),> 100 µM (inactive),4.53 µM (inactive),> 100 µM (inactive),0.0199 µM (active)
Nc1ccc2[nH]cc(CCC(=O)O)c2c1,28.8 µM (inactive),> 100 µM (inactive),> 100 µM (inactive),46.1 µM (inactive),> 100 µM (inactive),> 100 µM (inactive),> 100 µM (inactive),> 100 µM (inactive),> 100 µM (inactive),> 100 µM (inactive),> 100 µM (inactive),> 100 µM (inactive),> 100 µM (inactive),> 100 µM (inactive),> 100 µM (inactive),> 100 µM (inactive),> 100 µM (inactive),> 100 µM (inactive),> 100 µM (inactive),–
S=C(S)NCNC(=S)S,> 100 µM (inactive),> 100 µM (inactive),> 100 µM (inactive),> 100 µM (inactive),> 100 µM (inactive),> 100 µM (inactive),> 100 µM (inactive),> 100 µM (inactive),> 100 µM (inactive),> 100 µM (inactive),> 100 µM (inactive),–,> 100 µM (inactive),> 100 µM (inactive),> 100 µM (inactive),> 100 µM (inactive),> 100 µM (inactive),> 100 µM (inactive),> 100 µM (inactive),–
